According to patent US20260297070A1, “CYCLIC [COMPOUND LEFT OUT] WRN INHIBITORS” (Nimbus Wadjet, Inc., priority 2023, published 2026):

These compounds were tested against T1, human Werner helicase (WRN-BV08, Uniprot Q14191, amino acids 517-1235 with L1074F point mutation) (Homo sapiens, UniProt Q14191, L1074F) (assay: WRN (BV08) ADP-Glo Assay). Details: 0.15 nM WRN, 5 μM ATP, 0.1 nM DNA duplex, 15 min preincubation, 60 min at 25° C., pH 7.5, 1% DMSO; read-out: ADP-Glo_hWRN_IC50.
T1 construct: Uniprot Q14191, amino acids 517-1235 with L1074F point mutation; TEV-cleavable 8×His (C, cleaved yes); made in house; host or cells: Sf9 insect cells (baculovirus)
T1 sequence (Q14191 with tags, fused parts or gaps L1074F limits assumed): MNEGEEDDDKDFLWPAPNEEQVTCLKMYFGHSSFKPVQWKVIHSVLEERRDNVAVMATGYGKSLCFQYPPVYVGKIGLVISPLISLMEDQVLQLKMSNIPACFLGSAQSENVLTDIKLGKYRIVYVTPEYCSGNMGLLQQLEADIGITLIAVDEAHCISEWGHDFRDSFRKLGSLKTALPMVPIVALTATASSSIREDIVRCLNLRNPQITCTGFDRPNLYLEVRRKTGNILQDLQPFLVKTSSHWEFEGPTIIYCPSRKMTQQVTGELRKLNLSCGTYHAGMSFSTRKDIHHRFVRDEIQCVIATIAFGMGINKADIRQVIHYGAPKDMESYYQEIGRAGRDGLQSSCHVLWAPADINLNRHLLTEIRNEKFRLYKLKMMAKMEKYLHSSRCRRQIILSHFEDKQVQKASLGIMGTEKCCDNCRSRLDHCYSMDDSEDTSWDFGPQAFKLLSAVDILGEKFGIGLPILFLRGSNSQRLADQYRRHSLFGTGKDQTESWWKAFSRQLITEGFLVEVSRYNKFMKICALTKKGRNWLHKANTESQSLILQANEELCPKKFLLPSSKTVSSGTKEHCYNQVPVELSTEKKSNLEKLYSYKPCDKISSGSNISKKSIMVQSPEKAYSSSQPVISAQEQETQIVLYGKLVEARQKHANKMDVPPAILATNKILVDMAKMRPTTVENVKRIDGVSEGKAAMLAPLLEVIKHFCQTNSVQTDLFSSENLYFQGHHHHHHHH
Assay type: biochemical
Summary of the method: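 Untagged WRN (Sf9-expressed, TEV-cleaved) at 0.15 nM was preincubated 15 min at 25 °C with compound, then reacted 60 min at 25 °C with 5 μM ATP and 0.1 nM DNA duplex in Bicine pH 7.5, 1 mM MgCl2. ADP-Glo luminescence gave % inhibition; IC50 by four-parameter fit.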

Row | SMILES | IC50
1 | CN(C)C(=O)C(C(=O)N(Cc1ccncc1)C1C=CS(=O)(=O)C1)c1ccc(-c2ccc(F)cc2)cc1 (single isomer, unassigned) [I-27, (2R**)-N′-[(3R*)-1,1-dioxo-2,3-dihydro-1lambda6-thiophen-3-yl]-2-{4′-fluoro-[1,1′-biphenyl]-4-yl}-N,N-dimethyl-N′-[(pyridin-4-yl)methyl]propanediamide] | < 0.5 µM
2 | CN(C)C(=O)C(C(=O)N(Cc1ccnc(C(C)(C)O)c1)C1C=CS(=O)(=O)C1)c1ccc(-c2ccc(F)cc2)cc1 (single isomer, unassigned) [I-271, (2R**)-N-[(3R*)-1,1-dioxo-2,3-dihydro-1lambda6-thiophen-3-yl]-2-{4′-fluoro-[1,1′-biphenyl]-4-yl}-N-{[2-(2-hydroxypropan-2-yl)pyridin-4-yl]methyl}-N′,N′-dimethylpropanediamide] | 5 to 10 µM
3 | O=C(Cc1ccc(-n2cccc2)cc1)N(Cc1ccc(C(F)(F)F)nc1)C1C=CS(=O)(=O)C1 (centres unmarked) [I-295, N-(1,1-dioxo-2,3-dihydro-1lambda6-thiophen-3-yl)-2-[4-(1H-pyrrol-1-yl)phenyl]-N-{[6-(trifluoromethyl)pyridin-3-yl]methyl}acetamide] | 10 to 50 µM
4 | COc1cc(CN(C(=O)C(OC2COC2)c2ccc(-c3ccc(F)c(F)c3)cc2F)[C@@H]2C=CS(=O)(=O)C2)ccn1 (stereo partly drawn) [I-752, N-[(3R)-1,1-dioxo-2,3-dihydro-1lambda6-thiophen-3-yl]-N-[(2-methoxypyridin-4-yl)methyl]-2-(oxetan-3-yloxy)-2-{3,3′,4′-trifluoro-[1,1′-biphenyl]-4-yl}acetamide] | 5 to 10 µM
5 | COC(C(=O)N(Cc1ccnc(C(C)(C)O)c1)C1C=CS(=O)(=O)C1)c1ccc(-c2ccc(F)cc2)cc1F (single isomer, unassigned) [I-199, (2R*)-2-{3,4′-difluoro-[1,1′-biphenyl]-4-yl}-N-[(3R**)-1,1-dioxo-2,3-dihydro-1lambda6-thiophen-3-yl]-N-{[2-(2-hydroxypropan-2-yl)pyridin-4-yl]methyl}-2-methoxyacetamide] | 0.5 to 5 µM
6 | COc1cc(CN(C(=O)Cn2cc(-c3ccc(Cl)cc3)cn2)C2C=CS(=O)(=O)C2)ccn1 (centres unmarked) [I-85, 2-[4-(4-chlorophenyl)-1H-pyrazol-1-yl]-N-(1,1-dioxo-2,3-dihydro-1lambda6-thiophen-3-yl)-N-[(2-methoxypyridin-4-yl)methyl]acetamide] | < 0.5 µM
7 | COc1cc(CN(C(=O)Cc2ccc(-c3ccc(F)cc3)cn2)C2C=CS(=O)(=O)C2)ccn1 (centres unmarked) [I-175, N-(1,1-dioxo-2,3-dihydro-1lambda6-thiophen-3-yl)-2-[5-(4-fluorophenyl)pyridin-2-yl]-N-[(2-methoxypyridin-4-yl)methyl]acetamide] | 0.5 to 5 µM
8 | CC(C)(O)c1cc(CN(C(=O)Cn2cc(-c3ccccc3)cn2)C2C=CS(=O)(=O)C2)ccn1 (centres unmarked) [I-76, N-(1,1-dioxo-2,3-dihydro-1lambda6-thiophen-3-yl)-N-{[2-(2-hydroxypropan-2-yl)pyridin-4-yl]methyl}-2-(4-phenyl-1H-pyrazol-1-yl)acetamide] | < 0.5 µM
9 | CC(C)(O)c1cc(CN(C(=O)Cn2cc(-c3cc(F)c(F)c(F)c3)cn2)C2C=CS(=O)(=O)C2)ccn1 (single isomer, unassigned) [I-1] | < 0.5 µM
10 | COc1cc(CN(C(=O)C(c2ccc(-c3ccc(F)c(F)c3)cc2F)n2ncnn2)[C@@H]2C=CS(=O)(=O)C2)ccn1 (stereo partly drawn) [I-731, N-[(3R)-1,1-dioxo-2,3-dihydro-1lambda6-thiophen-3-yl]-N-[(2-methoxypyridin-4-yl)methyl]-2-(2H-1,2,3,4-tetrazol-2-yl)-2-{3,3′,4′-trifluoro-[1,1′-biphenyl]-4-yl}acetamide] | > 50 µM
11 | CC(C(=O)N(Cc1ccnc(C(C)(C)O)c1)[C@@H]1C=CS(=O)(=O)C1)n1cc(-c2ccc(F)cc2)cn1 (stereo partly drawn) [I-106, N-[(3R)-1,1-dioxo-2,3-dihydro-1lambda6-thiophen-3-yl]-2-[4-(4-fluorophenyl)-1H-pyrazol-1-yl]-N-{[2-(2-hydroxypropan-2-yl)pyridin-4-yl]methyl}propanamide] | 0.5 to 5 µM
12 | COc1cc(CN(C(=O)C2CNc3cc(-c4ccc(F)cc4)ccc32)C2C=CS(=O)(=O)C2)ccn1 (centres unmarked) [I-121, N-(1,1-dioxo-2,3-dihydro-1lambda6-thiophen-3-yl)-6-(4-fluorophenyl)-N-[(2-methoxypyridin-4-yl)methyl]-2,3-dihydro-1H-indole-3-carboxamide] | 0.5 to 5 µM
13 | CC(C)(O)c1cc(CN(C(=O)Cn2cc(-c3cc(F)c(F)c(F)c3)c(F)n2)[C@@H]2C=CS(=O)(=O)C2)ccn1 [I-832, N-[(3R)-1,1-dioxo-2,3-dihydro-1lambda6-thiophen-3-yl]-2-[3-fluoro-4-(3,4,5-trifluorophenyl)-1H-pyrazol-1-yl]-N-{[2-(2-hydroxypropan-2-yl)pyridin-4-yl]methyl}acetamide] | < 0.5 µM
14 | COc1cc(CN(C(=O)C(c2ccc(-c3ccc(F)c(F)c3)cc2F)n2ncc3ccncc32)[C@@H]2C=CS(=O)(=O)C2)ccn1 (stereo partly drawn) [I-751, N-[(3R)-1,1-dioxo-2,3-dihydro-1lambda6-thiophen-3-yl]-N-[(2-methoxypyridin-4-yl)methyl]-2-{1H-pyrazolo[3,4-c]pyridin-1-yl}-2-{3,3′,4′-trifluoro-[1,1′-biphenyl]-4-yl}acetamide] | 10 to 50 µM

Results, then the compound that gave them:

Row | IC50 | SMILES
15 | > 50 µM | COCc1cccn1-c1ccc(CC(=O)N(Cc2ccccc2)C2C=CS(=O)(=O)C2)cc1 (centres unmarked) [I-568, N-benzyl-N-(1,1-dioxo-2,3-dihydro-1lambda6-thiophen-3-yl)-2-{4-[2-(methoxymethyl)-1H-pyrrol-1-yl]phenyl}acetamide]
16 | 0.5 to 5 µM | COc1cc(CN(C(=O)Cc2ccc(-n3cccc3)cc2)C2C=CS(=O)(=O)C2)ccn1 (centres unmarked) [I-156, N-(1,1-dioxo-2,3-dihydro-1lambda6-thiophen-3-yl)-N-[(2-methoxypyridin-4-yl)methyl]-2-[4-(1H-pyrrol-1-yl)phenyl]acetamide]
17 | > 50 µM | O=C(Cc1ccc2c(c1)COCC2)N(Cc1ccncc1)C1C=CS(=O)(=O)C1 (centres unmarked) [I-642, 2-(3,4-dihydro-1H-2-benzopyran-7-yl)-N-(1,1-dioxo-2,3-dihydro-1lambda6-thiophen-3-yl)-N-[(pyridin-4-yl)methyl]acetamide]
18 | 5 to 10 µM | COc1ccc(CN(C(=O)Cc2ccc(-n3cccc3)cc2)C2C=CS(=O)(=O)C2)cc1 (centres unmarked) [I-219, N-(1,1-dioxo-2,3-dihydro-1lambda6-thiophen-3-yl)-N-[(4-methoxyphenyl)methyl]-2-[4-(1H-pyrrol-1-yl)phenyl]acetamide]
19 | > 50 µM | O=C(Cc1ccc(-c2nn[nH]n2)cc1)N(Cc1ccncc1)C1C=CS(=O)(=O)C1 (centres unmarked) [I-370, N-(1,1-dioxo-2,3-dihydro-1lambda6-thiophen-3-yl)-N-[(pyridin-4-yl)methyl]-2-[4-(2H-1,2,3,4-tetrazol-5-yl)phenyl]acetamide]
20 | 0.5 to 5 µM | CC(C)c1ccc(CC(=O)N(Cc2ccnc(C(C)(C)O)c2)C2C=CS(=O)(=O)C2)cc1 (centres unmarked) [I-123, N-(1,1-dioxo-2,3-dihydro-1lambda6-thiophen-3-yl)-N-{[2-(2-hydroxypropan-2-yl)pyridin-4-yl]methyl}-2-[4-(propan-2-yl)phenyl]acetamide]
21 | > 50 µM | O=C(C1CCC2(CCC2)CO1)N(Cc1ccncc1)C1C=CS(=O)(=O)C1 (centres unmarked) [I-654, N-(1,1-dioxo-2,3-dihydro-1lambda6-thiophen-3-yl)-N-[(pyridin-4-yl)methyl]-6-oxaspiro[3.5]nonane-7-carboxamide]
22 | > 50 µM | O=C(N[C@H](Cc1c[nH]c2ccccc12)C(=O)N(Cc1ccncc1)C1C=CS(=O)(=O)C1)C1CC1 (stereo partly drawn) [I-397, (2R)-2-(cyclopropylformamido)-N-(1,1-dioxo-2,3-dihydro-1lambda6-thiophen-3-yl)-3-(1H-indol-3-yl)-N-[(pyridin-4-yl)methyl]propanamide]
23 | > 50 µM | O=C(Cc1ccc(-c2nnco2)cc1)N(Cc1ccncc1)C1C=CS(=O)(=O)C1 (centres unmarked) [I-558, N-(1,1-dioxo-2,3-dihydro-1lambda6-thiophen-3-yl)-2-[4-(1,3,4-oxadiazol-2-yl)phenyl]-N-[(pyridin-4-yl)methyl]acetamide]
24 | 5 to 10 µM | O=C(Cc1ccc(C(F)(F)F)cc1)N(Cc1ccncc1)C1C=CS(=O)(=O)C1 (centres unmarked) [I-254, N-(1,1-dioxo-2,3-dihydro-1lambda6-thiophen-3-yl)-N-[(pyridin-4-yl)methyl]-2-[4-(trifluoromethyl)phenyl]acetamide]
25 | > 50 µM | O=C(CCc1nc(-c2ccccc2F)no1)N(Cc1ccncc1)C1C=CS(=O)(=O)C1 (centres unmarked) [I-496, N-(1,1-dioxo-2,3-dihydro-1lambda6-thiophen-3-yl)-3-[3-(2-fluorophenyl)-1,2,4-oxadiazol-5-yl]-N-[(pyridin-4-yl)methyl]propanamide]
26 | > 50 µM | O=C([C@H]1CC[C@@H](Cn2cccn2)O1)N(Cc1ccncc1)C1C=CS(=O)(=O)C1 (mixture of isomers) [I-716, rac-(2R,5S)-N-(1,1-dioxo-2,3-dihydro-1lambda6-thiophen-3-yl)-5-[(1H-pyrazol-1-yl)methyl]-N-[(pyridin-4-yl)methyl]oxolane-2-carboxamide]
27 | < 0.5 µM | Cc1cccn1-c1ccc(CC(=O)N(Cc2ccnc(C3(O)CCC3)c2)C2C=CS(=O)(=O)C2)c(F)c1 (centres unmarked) [I-65, N-(1,1-dioxido-2,3-dihydrothiophen-3-yl)-2-(2-fluoro-4-(2-methyl-1H-pyrrol-1-yl)phenyl)-N-((2-(1-hydroxycyclobutyl)pyridin-4-yl)methyl)acetamide]
28 | > 50 µM | Cn1nc(-c2ccccc2)cc1CC(=O)N(Cc1ccncc1)C1C=CS(=O)(=O)C1 (centres unmarked) [I-609, N-(1,1-dioxo-2,3-dihydro-1lambda6-thiophen-3-yl)-2-(1-methyl-3-phenyl-1H-pyrazol-5-yl)-N-[(pyridin-4-yl)methyl]acetamide]
29 | 10 to 50 µM | O=C(Cc1ccc(S(F)(F)(F)(F)F)cc1)N(Cc1ccncc1)C1C=CS(=O)(=O)C1 (single isomer, unassigned) [I-336]
